Experimental data published in ChEMBL document CHEMBL2434921, “New synthetic aliphatic sulfonamido-quaternary ammonium salts as anticancer chemotherapeutic agents” (2013).
Activity calls are given as the source filed them. The rule behind the calls is not given here.

Key:
PC-3 [1] = assay: Growth inhibition of human PC3 cells at 0.1 uM after 48 hrs by SRB assay; values are per cent of control; conditions: PC-3, 48 h
PC-3 [2] = assay: Growth inhibition of human PC3 cells after 48 hrs by SRB assay; format: functional; conditions: PC-3, 48 h
MDA-MB-231 [3] = assay: Growth inhibition of human MDA-MB-231 cells after 48 hrs by SRB assay; format: functional; conditions: MDA-MB-231, 48 h
HCT-15 [4] = assay: Growth inhibition of human HCT15 cells at 0.1 uM after 48 hrs by SRB assay; values are per cent of control; conditions: HCT-15, 48 h
MDA-MB-231 [5] = assay: Growth of human MDA-MB-231 cells at 0.1 uM after 48 hrs by SRB assay; conditions: MDA-MB-231, 48 h
MDA-MB-231 [6] = assay: Growth inhibition of human MDA-MB-231 cells at 0.3 uM after 48 hrs by SRB assay; values are per cent of control; conditions: MDA-MB-231, 48 h
ACHN [7] = assay: Growth of human ACHN cells at 0.1 uM after 48 hrs by SRB assay
NUGC-3 [8] = assay: Growth inhibition of human NUGC3 cells at 10 uM after 48 hrs by SRB assay; values are per cent of control; conditions: NUGC-3, 48 h
HCT-15 [9] = assay: Growth of human HCT15 cells at 0.3 uM after 48 hrs by SRB assay; conditions: HCT-15, 48 h
NCI-H23 [10] = assay: Growth inhibition of human NCI-H23 cells after 48 hrs by SRB assay; format: functional; conditions: NCI-H23, 48 h
PC-3 [11] = assay: Growth inhibition of human PC3 cells at 3 uM after 48 hrs by SRB assay; values are per cent of control; conditions: PC-3, 48 h
HCT-15 [12] = assay: Growth inhibition of human HCT15 cells after 48 hrs by SRB assay; format: functional; conditions: HCT-15, 48 h
NCI-H23 [13] = assay: Growth inhibition of human NCI-H23 cells at 1 uM after 48 hrs by SRB assay; values are per cent of control; conditions: NCI-H23, 48 h
HCT-15 [14] = assay: Growth of human HCT15 cells at 3 uM after 48 hrs by SRB assay; conditions: HCT-15, 48 h
NUGC-3 [15] = assay: Growth of human NUGC3 cells at 0.1 uM after 48 hrs by SRB assay; conditions: NUGC-3, 48 h
ACHN [16] = assay: Growth of human ACHN cells at 0.3 uM after 48 hrs by SRB assay
NCI-H23 [17] = assay: Growth inhibition of human NCI-H23 cells at 3 uM after 48 hrs by SRB assay; values are per cent of control; conditions: NCI-H23, 48 h
NUGC-3 [18] = assay: Growth inhibition of human NUGC3 cells after 48 hrs by SRB assay; format: functional; conditions: NUGC-3, 48 h
MDA-MB-231 [19] = assay: Growth of human MDA-MB-231 cells at 10 uM after 48 hrs by SRB assay; conditions: MDA-MB-231, 48 h
ACHN [20] = assay: Growth inhibition of human ACHN cells at 1 uM after 48 hrs by SRB assay; values are per cent of control
ACHN [21] = assay: Growth inhibition of human ACHN cells at 3 uM after 48 hrs by SRB assay; values are per cent of control
NCI-H23 [22] = assay: Growth of human NCI-H23 cells at 10 uM after 48 hrs by SRB assay; conditions: NCI-H23, 48 h
NCI-H23 [23] = assay: Growth of human NCI-H23 cells at 0.3 uM after 48 hrs by SRB assay; conditions: NCI-H23, 48 h
HCT-15 [24] = assay: Growth inhibition of human HCT15 cells at 1 uM after 48 hrs by SRB assay; values are per cent of control; conditions: HCT-15, 48 h
NUGC-3 [25] = assay: Growth of human NUGC3 cells at 0.3 uM after 48 hrs by SRB assay; conditions: NUGC-3, 48 h
PC-3 [26] = assay: Growth inhibition of human PC3 cells at 0.3 uM after 48 hrs by SRB assay; values are per cent of control; conditions: PC-3, 48 h
MDA-MB-231 [27] = assay: Growth of human MDA-MB-231 cells at 3 uM after 48 hrs by SRB assay; values are per cent of control; conditions: MDA-MB-231, 48 h
NUGC-3 [28] = assay: Growth of human NUGC3 cells at 1 uM after 48 hrs by SRB assay; conditions: NUGC-3, 48 h
ACHN [29] = assay: Growth of human ACHN cells at 10 uM after 48 hrs by SRB assay
PC-3 [30] = assay: Growth inhibition of human PC3 cells at 1 uM after 48 hrs by SRB assay; values are per cent of control; conditions: PC-3, 48 h
NCI-H23 [31] = assay: Growth inhibition of human NCI-H23 cells at 0.1 uM after 48 hrs by SRB assay; values are per cent of control; conditions: NCI-H23, 48 h
PC-3 [32] = assay: Growth of human PC3 cells at 10 uM after 48 hrs by SRB assay; conditions: PC-3, 48 h
[33] = biological target: Rho-related GTP-binding protein RhoB (Homo sapiens) (UniProt P62745); assay: Transactivation of RhoB (unknown origin) transfected in human HeLa cells at 5 uM measured over 10 secs by dual luciferase reporter gene assay; format: cell-based
MDA-MB-231 [34] = assay: Growth of human MDA-MB-231 cells at 1 uM after 48 hrs by SRB assay; conditions: MDA-MB-231, 48 h
NUGC-3 [35] = assay: Growth inhibition of human NUGC3 cells at 3 uM after 48 hrs by SRB assay; values are per cent of control; conditions: NUGC-3, 48 h
HCT-15 [36] = assay: Growth inhibition of human HCT15 cells at 10 uM after 48 hrs by SRB assay; values are per cent of control; conditions: HCT-15, 48 h
ACHN [37] = assay: Growth inhibition of human ACHN cells after 48 hrs by SRB assay; format: functional

Chain of Rho-related GTP-binding protein RhoB (Homo sapiens) (P62745 whole entry): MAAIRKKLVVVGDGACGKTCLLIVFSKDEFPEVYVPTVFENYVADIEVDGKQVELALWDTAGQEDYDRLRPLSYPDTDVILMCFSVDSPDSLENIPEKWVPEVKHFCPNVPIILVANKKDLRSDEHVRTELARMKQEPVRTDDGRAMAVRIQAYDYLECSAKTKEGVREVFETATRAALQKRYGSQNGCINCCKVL

Compound | growth, % of control at 0.1 µM (PC-3 [1]) [%] | GI50 (PC-3 [2]) [nM] | GI50 (MDA-MB-231 [3]) [nM] | growth, % of control at 0.1 µM (HCT-15 [4]) [%] | growth, % of control at 0.1 µM (MDA-MB-231 [5]) [%] | growth, % of control at 0.3 µM (MDA-MB-231 [6]) [%] | growth, % of control at 0.1 µM (ACHN [7]) [%] | growth, % of control at 10 µM (NUGC-3 [8]) [%] | growth, % of control at 0.3 µM (HCT-15 [9]) [%] | GI50 (NCI-H23 [10]) [nM] | growth, % of control at 3 µM (PC-3 [11]) [%] | GI50 (HCT-15 [12]) [nM] | growth, % of control at 1 µM (NCI-H23 [13]) [%] | growth, % of control at 3 µM (HCT-15 [14]) [%] | growth, % of control at 0.1 µM (NUGC-3 [15]) [%] | growth, % of control at 0.3 µM (ACHN [16]) [%] | growth, % of control at 3 µM (NCI-H23 [17]) [%] | GI50 (NUGC-3 [18]) [nM] | growth, % of control at 10 µM (MDA-MB-231 [19]) [%] | growth, % of control at 1 µM (ACHN [20]) [%] | also measured
C=CC[N+](CC)(CC)CCN(C)S(=O)(=O)CCCCCCCCCCCCCCCC | 88.2 | 760 | 1340 | 87.9 | 94.8 | 97 | 85.9 | -20.2 | 90.7 | 450 | 10 | 1810 | 51.3 | 66.6 | 89.1 | 88.2 | 16.9 | 390 | 9.2 | 82.2 | growth, % of control at 3 µM (ACHN [21]): 50.4%; growth, % of control at 10 µM (NCI-H23 [22]): -7.6%; growth, % of control at 0.3 µM (NCI-H23 [23]): 78.4%; growth, % of control at 1 µM (HCT-15 [24]): 84%; growth, % of control at 0.3 µM (NUGC-3 [25]): 86.6%; growth, % of control at 0.3 µM (PC-3 [26]): 91%; growth, % of control at 3 µM (MDA-MB-231 [27]): 42.9%; growth, % of control at 1 µM (NUGC-3 [28]): 34.9%; growth, % of control at 10 µM (ACHN [29]): -11.8%; growth, % of control at 1 µM (PC-3 [30]): 73.3%; growth, % of control at 0.1 µM (NCI-H23 [31]): 77.9%; growth, % of control at 10 µM (PC-3 [32]): -13.2%; Activity [33]: Active; growth, % of control at 1 µM (MDA-MB-231 [34]): 80.6%; growth, % of control at 3 µM (NUGC-3 [35]): 4.9%; growth, % of control at 10 µM (HCT-15 [36]): -7%; GI50 (ACHN [37]): 1450 nM
CCCCCCCCCCCCCCS(=O)(=O)N(C)CCC[N+](C)(C)C | 97.1 | 300 | 1260 | 92.4 | 102 | 98.1 | 85.3 | -12.9 | 87.9 | 210 | -0.1 | 680 | 8 | 29.9 | 83.9 | 93.4 | -19.7 | 150 | 23.5 | 57.2 | growth, % of control at 3 µM (ACHN [21]): 37.8%; growth, % of control at 10 µM (NCI-H23 [22]): -50.6%; growth, % of control at 0.3 µM (NCI-H23 [23]): 70.6%; growth, % of control at 1 µM (HCT-15 [24]): 46.2%; growth, % of control at 0.3 µM (NUGC-3 [25]): 42.8%; growth, % of control at 0.3 µM (PC-3 [26]): 86.4%; growth, % of control at 3 µM (MDA-MB-231 [27]): 42.1%; growth, % of control at 1 µM (NUGC-3 [28]): 22.7%; growth, % of control at 10 µM (ACHN [29]): 27.1%; growth, % of control at 1 µM (PC-3 [30]): 18.6%; growth, % of control at 0.1 µM (NCI-H23 [31]): 84.8%; growth, % of control at 10 µM (PC-3 [32]): -17.4%; Activity [33]: Active; growth, % of control at 1 µM (MDA-MB-231 [34]): 66.6%; growth, % of control at 3 µM (NUGC-3 [35]): 8.5%; growth, % of control at 10 µM (HCT-15 [36]): 24.8%; GI50 (ACHN [37]): 1010 nM
CCCCCCCCCCCCCCCCS(=O)(=O)N(C)CC[N+](C)(CC)CC | 100 | 560 | 1120 | 98.5 | 98.5 | 96.2 | 90.4 | 1.2 | 100 | 620 | 8.6 | 1490 | 51.3 | 42.7 | 93.6 | 89.5 | 22.5 | 390 | 15.6 | 72.7 | growth, % of control at 3 µM (ACHN [21]): 48.7%; growth, % of control at 10 µM (NCI-H23 [22]): 0.4%; growth, % of control at 0.3 µM (NCI-H23 [23]): 90.5%; growth, % of control at 1 µM (HCT-15 [24]): 76.2%; growth, % of control at 0.3 µM (NUGC-3 [25]): 88.1%; growth, % of control at 0.3 µM (PC-3 [26]): 92.8%; growth, % of control at 3 µM (MDA-MB-231 [27]): 35.7%; growth, % of control at 1 µM (NUGC-3 [28]): 30.2%; growth, % of control at 10 µM (ACHN [29]): 5%; growth, % of control at 1 µM (PC-3 [30]): 50.7%; growth, % of control at 0.1 µM (NCI-H23 [31]): 90.7%; growth, % of control at 10 µM (PC-3 [32]): -21.6%; Activity [33]: Active; growth, % of control at 1 µM (MDA-MB-231 [34]): 68.4%; growth, % of control at 3 µM (NUGC-3 [35]): 9.2%; growth, % of control at 10 µM (HCT-15 [36]): 21.1%; GI50 (ACHN [37]): 1290 nM
